Patent publication US6127396A, “Imidazoline compounds” (Adir et Compagnie, priority 1998, dated 2000)
Where a name gives a salt, the structure may show the parent alone. Blank lines part the entries; values can stand above or below the molecule they belong to.

How the values were obtained:
Format in all cases: binding
[1] = molecular target: T1, noradrenaline reuptake sites (Rattus norvegicus, UniProt Q63380); assay: Affinity for noradrenaline reuptake sites in the rat, competition with [3H]-nisoxetine; settings: rat frontal cortex membranes, 2 nM [3H]-nisoxetine, 4 hours at 4° C.
T1 construct: The membranes are prepared from the frontal cortex of the rat; from tissue; host or cells: rat frontal cortex membranes
T1 sequence (Q63380 1-617): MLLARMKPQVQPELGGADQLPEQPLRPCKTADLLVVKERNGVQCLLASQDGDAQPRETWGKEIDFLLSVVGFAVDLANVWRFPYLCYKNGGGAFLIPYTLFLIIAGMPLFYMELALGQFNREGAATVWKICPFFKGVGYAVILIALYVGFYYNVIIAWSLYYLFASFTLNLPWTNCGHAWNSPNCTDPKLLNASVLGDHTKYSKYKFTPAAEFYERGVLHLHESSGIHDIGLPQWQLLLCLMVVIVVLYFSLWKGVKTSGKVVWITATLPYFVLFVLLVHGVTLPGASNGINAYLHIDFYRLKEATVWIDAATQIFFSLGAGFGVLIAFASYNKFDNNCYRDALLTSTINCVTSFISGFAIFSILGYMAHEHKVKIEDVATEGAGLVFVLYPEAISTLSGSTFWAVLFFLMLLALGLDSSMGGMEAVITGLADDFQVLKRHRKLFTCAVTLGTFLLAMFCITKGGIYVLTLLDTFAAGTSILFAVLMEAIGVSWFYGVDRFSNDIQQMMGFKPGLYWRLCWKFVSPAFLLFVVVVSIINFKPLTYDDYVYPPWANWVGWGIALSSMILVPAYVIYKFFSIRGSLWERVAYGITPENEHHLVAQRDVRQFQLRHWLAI
Description: Determination of the Affinity for Noradrenaline Reuptake Sites in the Rat
The affinity was determined by competition experiments using [^3 H]-nisoxetine. The membranes are prepared from the frontal cortex of the rat and are incubated in triplicate with 2 nM [^3 H]-nisoxetine and the compound being tested in a final volume of 0.5 ml, for 4 hours at 4° C. The incubation buffer contains 50 mM TRIS-HCl (pH 7.4), 120 mM NaCl and 5 mM KCl. The non-specific binding is determined using 10 μM desipramine.
(§1) At the end of the incubation, the incubation medium is filtered through WHATMAN GF/B filters impregnated with 0.1% of polyethylenimine and washed three times with 5 ml of cooled buffer. The radioactivity retained on the filters is determined by liquid scintillation counting. The binding isotherms are analysed by non-linear regression.

serotonin reuptake sites = molecular target: T2, serotonin reuptake sites (Rattus norvegicus, UniProt P31652); assay: Affinity for serotonin reuptake sites in the rat, competition with [3H]-paroxetine; settings: rat frontal cortex membranes, 0.25 nM [3H]-paroxetine, 2 hours at 25° C.
T2 construct: The membranes are prepared from the frontal cortex of the rat; from tissue; host or cells: rat frontal cortex membranes
T2 sequence (P31652 whole entry): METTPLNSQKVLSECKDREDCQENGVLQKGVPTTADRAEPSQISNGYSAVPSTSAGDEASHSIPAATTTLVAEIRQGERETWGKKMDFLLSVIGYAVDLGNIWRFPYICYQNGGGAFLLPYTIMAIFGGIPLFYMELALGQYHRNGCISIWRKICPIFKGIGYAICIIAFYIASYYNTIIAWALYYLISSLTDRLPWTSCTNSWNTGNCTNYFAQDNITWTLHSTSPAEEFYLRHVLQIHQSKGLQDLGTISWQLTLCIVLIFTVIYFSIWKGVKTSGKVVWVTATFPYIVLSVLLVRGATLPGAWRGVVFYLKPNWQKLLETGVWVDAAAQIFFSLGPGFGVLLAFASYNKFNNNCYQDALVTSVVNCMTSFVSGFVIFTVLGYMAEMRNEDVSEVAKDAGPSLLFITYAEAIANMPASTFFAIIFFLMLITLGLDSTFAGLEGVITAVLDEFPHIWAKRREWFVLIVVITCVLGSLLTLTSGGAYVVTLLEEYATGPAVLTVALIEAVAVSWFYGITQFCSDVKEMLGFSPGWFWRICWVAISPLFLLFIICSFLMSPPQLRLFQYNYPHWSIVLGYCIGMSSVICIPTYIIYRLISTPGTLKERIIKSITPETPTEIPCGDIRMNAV
Description: Determination of the Affinity for Serotonin Reuptake Sites in the Rat
The affinity was determined by competition experiments using [^3 H]-paroxetine. The membranes are prepared from the frontal cortex of the rat and are incubated in triplicate with 0.25 nM [^3 H]-paroxetine and the compound being tested in a final volume of 0.4 ml, for 2 hours at 25° C. The incubation buffer contains 50 mM TRIS-HCl (pH 7.4), 120 mM NaCl and 5 mM KCN. The non-specific binding is determined using 10 μM citalopram.
as §1

α2-adrenergic receptors = assay: Affinity for α2-adrenergic receptors in the rat, competition with [3H]-RX 821,002; settings: rat cerebral cortex membranes, 0.4 nM [3H]-RX 821,002, 60 minutes at 22° C.
Description: Determination of the Affinity for α2 -adrenergic Receptors in the Rat
The affinity was determined by competition experiments with [^3 H]-RX 821,002. The membranes are prepared from the cerebral cortex of the rat and are incubated in triplicate with 0.4 nM [^3 H]-RX 821,002 and the compound being tested in a final volume of 1.0 ml, for 60 minutes at 22° C. The incubation buffer contains […] TRIS-HCl (pH 7.5), 1 mM EDTA and 100 μM GppNHp. The non-specific binding is determined using 10 μM phentolamine.
as §1

Ki [1]: 15.8 nM
SMILES: C1=N[C@H](CC2=Cc3ccccc3CC2)CN1 [Example 2, (4R)-4-(3,4-dihydro-2-naphthylmethyl)-4,5-dihydro-1H-imidazole fumarate]

SMILES: COc1cccc2c1C=C(CC1CNC=N1)CC2.O=C(O)/C=C/C(=O)O (stereo not drawn) [Example 12, 4-[(8-Methoxy-3,4-dihydro-2-naphthyl)methyl]-4,5-dihydro-1H-imidazole fumarate]
pKi (serotonin reuptake sites): 7.8

pKi (α2-adrenergic receptors): 8.8
SMILES: C1=NCC(CC2Cc3ccccc3C2)N1 (stereo not drawn) [Example 22, 4-(2,3-Dihydro-1H-inden-2-ylmethyl)-4,5-dihydro-1H-imidazole hemi-fumarate]
